Data from PubChem BioAssay (NCI).
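The concentration for 50% growth inhibition is given as GI50. TGI: total growth inhibition.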

Experiments:
Assay in all cases: growth of human tumour cells (NCI), 384-well format
PC-3 prostate = test system: PC-3 prostate
HCT-15 colon = test system: HCT-15 colon
HCT-116 colon = test system: HCT-116 colon
OVCAR-5 ovarian = test system: OVCAR-5 ovarian
MCF7 breast = test system: MCF7 breast
SR leukemia = test system: SR leukemia
HL-60(TB) leukemia = test system: HL-60(TB) leukemia
HT29 colon = test system: HT29 colon
UACC-62 melanoma = test system: UACC-62 melanoma
A498 renal = test system: A498 renal
NCI-H322M lung = test system: NCI-H322M lung
SK-OV-3 ovarian = test system: SK-OV-3 ovarian
CCRF-CEM leukemia = test system: CCRF-CEM leukemia
NCI-H23 lung = test system: NCI-H23 lung
NCI-H522 lung = test system: NCI-H522 lung
SF-539 CNS = test system: SF-539 CNS
EKVX NSCLC = test system: EKVX NSCLC
OVCAR-3 ovarian = test system: OVCAR-3 ovarian
NCI-H226 lung = test system: NCI-H226 lung
HCC-2998 colon = test system: HCC-2998 colon
SNB-19 CNS = test system: SNB-19 CNS
DU-145 prostate = test system: DU-145 prostate
T-47D breast = test system: T-47D breast
SNB-75 CNS = test system: SNB-75 CNS
NCI-H460 NSCLC = test system: NCI-H460 NSCLC
CAKI-1 renal = test system: CAKI-1 renal
KM12 colon = test system: KM12 colon
NCI/ADR-RES ovarian = test system: NCI/ADR-RES ovarian
OVCAR-4 ovarian = test system: OVCAR-4 ovarian
HS 578T breast = test system: HS 578T breast
MDA-MB-231 breast = test system: MDA-MB-231 breast
SK-MEL-2 melanoma = test system: SK-MEL-2 melanoma
ACHN renal = test system: ACHN renal
A549 NSCLC = test system: A549 NSCLC
RPMI-8226 leukemia = test system: RPMI-8226 leukemia
LOX IMVI melanoma = test system: LOX IMVI melanoma
K-562 leukemia = test system: K-562 leukemia
HOP-92 NSCLC = test system: HOP-92 NSCLC
SK-MEL-5 melanoma = test system: SK-MEL-5 melanoma
TK-10 renal = test system: TK-10 renal
786-0 renal = test system: 786-0 renal
M14 melanoma = test system: M14 melanoma
SN12C renal = test system: SN12C renal
SK-MEL-28 melanoma = test system: SK-MEL-28 melanoma
COLO 205 colon = test system: COLO 205 colon
UACC-257 melanoma = test system: UACC-257 melanoma
IGROV1 ovarian = test system: IGROV1 ovarian
SW-620 colon = test system: SW-620 colon
MOLT-4 leukemia = test system: MOLT-4 leukemia
OVCAR-8 ovarian = test system: OVCAR-8 ovarian
SF-268 CNS = test system: SF-268 CNS
MALME-3M melanoma = test system: MALME-3M melanoma

CN(C)CCN(C)CC(C)(C)C(=O)/C=C/c1ccc(Cl)cc1
GI50 (PC-3 prostate): 2.62 µM
TGI (PC-3 prostate): 5.93 µM
GI50 (HCT-15 colon): 5.08 µM
TGI (HCT-15 colon): 17.8 µM
GI50 (HCT-116 colon): 2 µM
TGI (HCT-116 colon): 4.18 µM
GI50 (OVCAR-5 ovarian): 7.14 µM
TGI (OVCAR-5 ovarian): 19.7 µM
GI50 (MCF7 breast): 17.2 µM
TGI (MCF7 breast): 31.2 µM
GI50 (SR leukemia): 1.42 µM
TGI (SR leukemia): 2.73 µM
GI50 (HL-60(TB) leukemia): 1.94 µM
TGI (HL-60(TB) leukemia): 3.37 µM
GI50 (HT29 colon): 3.26 µM
TGI (HT29 colon): 11.8 µM
GI50 (UACC-62 melanoma): 1.91 µM
TGI (UACC-62 melanoma): 3.75 µM
GI50 (A498 renal): 2.78 µM
TGI (A498 renal): 7.47 µM
GI50 (NCI-H322M lung): 3.11 µM
TGI (NCI-H322M lung): 7.72 µM
GI50 (SK-OV-3 ovarian): 2.24 µM
TGI (SK-OV-3 ovarian): 5.95 µM
GI50 (CCRF-CEM leukemia): 1.68 µM
TGI (CCRF-CEM leukemia): 3.05 µM
GI50 (NCI-H23 lung): 5.84 µM
TGI (NCI-H23 lung): 18.2 µM
GI50 (NCI-H522 lung): 1.34 µM
TGI (NCI-H522 lung): 2.77 µM
GI50 (SF-539 CNS): 10.5 µM
TGI (SF-539 CNS): 22.4 µM
GI50 (EKVX NSCLC): 2.14 µM
TGI (EKVX NSCLC): 5.07 µM
GI50 (OVCAR-3 ovarian): 1.75 µM
TGI (OVCAR-3 ovarian): 4.03 µM
GI50 (NCI-H226 lung): 5.39 µM
TGI (NCI-H226 lung): 16.2 µM
GI50 (HCC-2998 colon): 4.45 µM
TGI (HCC-2998 colon): 13.7 µM
GI50 (SNB-19 CNS): 2.93 µM
TGI (SNB-19 CNS): 9.62 µM
GI50 (DU-145 prostate): 3.22 µM
TGI (DU-145 prostate): 8.86 µM
GI50 (T-47D breast): 17.9 µM
TGI (T-47D breast): 31.9 µM
GI50 (SNB-75 CNS): 2.91 µM
TGI (SNB-75 CNS): 7.32 µM
GI50 (NCI-H460 NSCLC): 2.03 µM
TGI (NCI-H460 NSCLC): 4.12 µM
GI50 (CAKI-1 renal): 2.92 µM
TGI (CAKI-1 renal): 12 µM
GI50 (KM12 colon): 2.45 µM
TGI (KM12 colon): 5.05 µM
GI50 (NCI/ADR-RES ovarian): 2.06 µM
TGI (NCI/ADR-RES ovarian): 3.98 µM
GI50 (OVCAR-4 ovarian): 2.37 µM
TGI (OVCAR-4 ovarian): 5.73 µM
GI50 (HS 578T breast): 2.55 µM
TGI (HS 578T breast): 6.02 µM
GI50 (MDA-MB-231 breast): 3.1 µM
TGI (MDA-MB-231 breast): 8.03 µM
GI50 (SK-MEL-2 melanoma): 1.55 µM
TGI (SK-MEL-2 melanoma): 3.32 µM
GI50 (ACHN renal): 2.02 µM
TGI (ACHN renal): 7.29 µM
GI50 (A549 NSCLC): 3.3 µM
TGI (A549 NSCLC): 11.1 µM
GI50 (RPMI-8226 leukemia): 1.71 µM
TGI (RPMI-8226 leukemia): 3.17 µM
GI50 (LOX IMVI melanoma): 0.764 µM
TGI (LOX IMVI melanoma): 2.12 µM
GI50 (K-562 leukemia): 1.72 µM
TGI (K-562 leukemia): 3.44 µM
GI50 (HOP-92 NSCLC): 2.09 µM
TGI (HOP-92 NSCLC): 4.65 µM
GI50 (SK-MEL-5 melanoma): 1.9 µM
TGI (SK-MEL-5 melanoma): 4.08 µM
GI50 (TK-10 renal): 2.44 µM
TGI (TK-10 renal): 6.06 µM
GI50 ([…]-0 renal): 2.91 µM
TGI (786-0 renal): 9.33 µM
GI50 (M14 melanoma): 2.07 µM
TGI (M14 melanoma): 4.06 µM
GI50 (SN12C renal): 2.09 µM
TGI (SN12C renal): 5.98 µM
GI50 (SK-MEL-28 melanoma): 3.06 µM
TGI (SK-MEL-28 melanoma): 10.2 µM
GI50 (COLO 205 colon): 5.88 µM
TGI (COLO 205 colon): 17.1 µM
GI50 (UACC-257 melanoma): 2.36 µM
TGI (UACC-257 melanoma): 4.96 µM
GI50 (IGROV1 ovarian): 2.53 µM
TGI (IGROV1 ovarian): 6.1 µM
GI50 (SW-620 colon): 2.09 µM
TGI (SW-620 colon): 4.45 µM
GI50 (MOLT-4 leukemia): 1.76 µM
TGI (MOLT-4 leukemia): 3.2 µM
GI50 (OVCAR-8 ovarian): 2.24 µM
TGI (OVCAR-8 ovarian): 4.8 µM
GI50 (SF-268 CNS): 2.39 µM
TGI (SF-268 CNS): 5.29 µM
GI50 (MALME-3M melanoma): 4.76 µM
TGI (MALME-3M melanoma): 14.6 µM
